{"source": "patent US11497747B2", "about": "“Compositions and methods for treating lung injuries associated with SARS-CoV-2 infections” (priority 2020, dated 2022)", "key": {"MAP3K2/MAP3K3 [1]": {"system": "MAP3K2/MAP3K3", "experiment": "MAP3K2/MAP3K3-mediated phosphorylation of p47phox", "assay_type": "biochemical"}, "acute lung injury (ALI) [2]": {"system": "acute lung injury (ALI)", "experiment": "mouse ALI/ARDS models (acid-induced direct insult, LPS-induced indirect insult)", "assay_type": "in vivo", "conditions": "dependent on MAP3K2/3 and ROS production"}, "MAP3K2/MAP3K3 [3]": {"system": "MAP3K2/MAP3K3", "conditions": "p47phox substrate; cited from earlier work"}, "MAP3K2/MAP3K3 [4]": {"system": "MAP3K2/MAP3K3", "conditions": "MEK5 substrate; cited from earlier work"}, "neutrophils": {"system": "neutrophils", "conditions": "cited from earlier work"}, "[5]": {"conditions": "in vivo; cited from earlier work"}, "[6]": {"conditions": "cited from earlier work"}, "patients": {"system": "patients", "conditions": "cited from earlier work"}, "[7]": {"system": "coronavirus (Murine Hepatitis Virus Strain 1, MHV-1) induced mouse lung injury model", "experiment": "survival and body weight loss in mouse coronavirus induced acute lung injury model", "conditions": "3 mg/kgbw retro-orbital once daily for 5 days since 24 hr after virus inoculation"}, "[8]": {"system": "coronavirus (Murine Hepatitis Virus Strain 1, MHV-1) induced mouse lung injury model", "experiment": "pulmonary permeability (FITC-albumin in BAL) in mouse coronavirus induced acute lung injury model"}, "acute lung injury (ALI) [9]": {"system": "acute lung injury (ALI)", "conditions": "cited from earlier work"}}, "data": [{"compound": "5-({4-[(2,3-Dimethyl-2H-indazol-6-yl)methylamino]pyrimidin-2-yl}amino)-2-methylbenzenesulfonamide [pazopanib]", "values": [{"measurement": "affinity as p47phox substrate-specific inhibitor for MAP3K2 and 3", "setting": "MAP3K2/MAP3K3 [1]", "result": "low nanomolar"}, {"measurement": "ameliorating ALI in the two mouse ALI/ARDS models", "setting": "acute lung injury (ALI) [2]", "result": "effective in ameliorating ALI"}, {"measurement": "inhibition of MAP3K2/MAP3K3-mediated phosphorylation of p47phox", "setting": "MAP3K2/MAP3K3 [3]", "result": "low nM levels"}, {"measurement": "inhibition of other substrates of MAP3K2/MAP3K3 such as MEK5", "setting": "MAP3K2/MAP3K3 [4]", "result": "μM levels"}, {"measurement": "ROS levels", "setting": "neutrophils", "result": "elevates ROS levels"}, {"measurement": "bioavailability", "setting": "[5]", "result": "14-21%"}, {"measurement": "half-life", "setting": "[5]", "result": "30.9 to 31.9", "unit": "h"}, {"measurement": "protein binding", "setting": "[6]", "result": "> 99.5", "unit": "%"}, {"measurement": "ILD/pneumonitis reported in patients in the clinical trials", "setting": "patients; clinical trials", "result": "0.1 % of patients"}, {"measurement": "patients who developed a pneumothorax", "setting": "patients; randomized RCC trial", "result": "[t]wo of 290"}, {"measurement": "pneumothorax occurrence", "setting": "patients; randomized STS trial (8/240)", "result": 3, "unit": "%"}, {"measurement": "survival rate", "setting": "[7]; FIG. 6", "result": "does not affect"}, {"measurement": "body weight loss", "setting": "[7]; FIG. 7", "result": "does not affect"}, {"measurement": "pulmonary permeability", "setting": "[8]; 2 doses at 3 mg/kgbw retro-orbital, 24 and 33 h after 6000 PFU MHV-1, FIG. 2", "result": "significantly reduce"}, {"measurement": "pulmonary permeability", "setting": "[8]; 3 doses at 3 mg/kgbw retro-orbital, 6, 21 and 32 h after 5000 PFU MHV-1, FIG. 1", "result": "significantly reduce"}, {"measurement": "pulmonary permeability", "setting": "[8]; one dose 3 mg/kgbw retro-orbital at 24 hr after virus inoculation, FIG. 3", "result": "significantly reduce"}, {"measurement": "pulmonary permeability", "setting": "[8]; one dose 3 mg/kgbw retro-orbital at 48 hr after virus inoculation, FIG. 4", "result": "significantly reduce"}, {"measurement": "pulmonary permeability", "setting": "[8]; one dose 3 mg/kgbw retro-orbital at 72 hr after virus inoculation, FIG. 5", "result": "negligible effect"}]}, {"compound": "COC(=O)c1ccc2c(c1)NC(=O)/C2=C(\\Nc1ccc(N(C)C(=O)CN2CCN(C)CC2)cc1)c1ccccc1", "note": "[nintedanib, Methyl (3Z)-3-{[(4-{methyl[(4-methylpiperazin-1-yl)acetyl]amino}phenyl)amino](phenyl)methylidene}-2-oxo-2,3-dihydro-1H-indole-6-carboxylate]", "values": [{"measurement": "inhibition of MAP3K2/MAP3K3-mediated phosphorylation of p47phox", "setting": "MAP3K2/MAP3K3 [3]", "result": "also inhibits"}, {"measurement": "reduction of ALI in mouse models", "setting": "acute lung injury (ALI) [9]", "result": "has been shown to reduce ALI"}]}, {"compound": "Cc1ccc(NC(=O)c2ccc(CN3CCN(C)CC3)cc2)cc1Nc1nccc(-c2cccnc2)n1", "note": "[imatinib]", "values": [{"measurement": "inhibition of MAP3K2/MAP3K3-mediated phosphorylation of p47phox", "setting": "MAP3K2/MAP3K3 [3]", "result": "do not inhibit"}]}]}
